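Following 48 hours of exposure in 96-well plates, responses at five concentrations were used to interpolate endpoints linearly. At the TGI there is no net growth.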
Legend:
Experiment in all cases: NCI-60 cell line screen, 48 h
CAKI-1 renal = system: CAKI-1 renal
HOP-62 NSCLC = system: HOP-62 NSCLC
PC-3 prostate = system: PC-3 prostate
RXF 393 renal = system: RXF 393 renal
SK-MEL-28 melanoma = system: SK-MEL-28 melanoma
SK-MEL-5 melanoma = system: SK-MEL-5 melanoma
SNB-19 CNS = system: SNB-19 CNS
TK-10 renal = system: TK-10 renal
U251 CNS = system: U251 CNS
UACC-62 melanoma = system: UACC-62 melanoma

`Cc1cnc2[nH]c(-c3sccc3C)cc(=O)c2c1` was tested, and the TGI (CAKI-1 renal) was greater than 100 µM, the TGI (HOP-62 NSCLC) was greater than 100 µM and the TGI (PC-3 prostate) was greater than 100 µM. The TGI (RXF 393 renal) was greater than 28.4 µM, the TGI (SK-MEL-28 melanoma) was greater than 100 µM and the TGI (SK-MEL-5 melanoma) was 21.7 µM. It also gave a TGI (SNB-19 CNS) greater than 40.8 µM, a TGI (TK-10 renal) greater than 100 µM and a TGI (U251 CNS) greater than 100 µM. For the same compound, the TGI (UACC-62 melanoma) was greater than 54.3 µM.

`CC(C)c1cc(C(C)C)c(B(c2ccccc2)c2ccccc2)c(C(C)C)c1Br` was tested, and the TGI (CAKI-1 renal) was greater than 100 µM, the TGI (HOP-62 NSCLC) was greater than 100 µM and the TGI (PC-3 prostate) was greater than 100 µM. For the same compound, the TGI (RXF 393 renal) was greater than 100 µM, the TGI (SK-MEL-28 melanoma) was greater than 100 µM and the TGI (SK-MEL-5 melanoma) was greater than 100 µM. For the same compound, the TGI (SNB-19 CNS) was greater than 100 µM, the TGI (TK-10 renal) was greater than 100 µM and the TGI (U251 CNS) was greater than 100 µM. For the same compound, the TGI (UACC-62 melanoma) was greater than 100 µM.

In the case of `O=C1/C(=C/Cc2ccco2)N=C(c2ccccc2)N1c1nc2c(Cl)cc(Cl)cc2s1`, the TGI (CAKI-1 renal) is reported as greater than 100 µM, the TGI (HOP-62 NSCLC) is reported as greater than 100 µM and the TGI (PC-3 prostate) is reported as 74.8 µM. The TGI (RXF 393 renal) was 40.6 µM, the TGI (SK-MEL-28 melanoma) was greater than 100 µM and the TGI (SK-MEL-5 melanoma) was greater than 100 µM. It also gave a TGI (SNB-19 CNS) greater than 100 µM, a TGI (TK-10 renal) greater than 100 µM and a TGI (U251 CNS) of 83.5 µM. The TGI (UACC-62 melanoma) was greater than 100 µM.

`Cc1nc2ccccc2nc1N1CCCC1` showed a TGI (CAKI-1 renal) greater than 100 µM, a TGI (HOP-62 NSCLC) greater than 100 µM and a TGI (PC-3 prostate) greater than 100 µM. It also gave a TGI (RXF 393 renal) greater than 100 µM, a TGI (SK-MEL-28 melanoma) greater than 100 µM and a TGI (SK-MEL-5 melanoma) greater than 100 µM. It also gave a TGI (SNB-19 CNS) greater than 100 µM, a TGI (TK-10 renal) greater than 100 µM and a TGI (U251 CNS) greater than 100 µM. It also gave a TGI (UACC-62 melanoma) greater than 100 µM.

Reference: PubChem BioAssay (NCI)
